Patent publication US6521659B2, “Compositions containing a substituted indolealkanoic acid and an angiotensin converting enzyme inhibitor” (Institute for Pharmaceutical Discovery, LLC, priority 2000, dated 2003)
Read-outs that look alike come from different tables or passages of the source.

What was measured:
[1] = target: human aldose reductase (hALR2) (Homo sapiens, UniProt P15121); test: Inhibition of human aldose reductase (hALR2), methods similar to Butera et al.; type: biochemical; settings: for HALR1/hALR2: ratio of hALR1 IC50 to hALR2 IC50 (selectivity)
Protocol: Representative compounds of Formula Iwere tested for their potency, selectivity and efficacy as inhibitors of human aldose reductase.
(§1) Since high potency of test compounds as inhibitors of aldose reductase is desirable, low hALR2 IC50 values are sought. On the other hand, high potency of test compounds as inhibitors of aldehyde reductase is undesirable, and high ALR1 IC50s values are sought. Accordingly, the hALR1/hALR2 ratio is used to determine the selectivity of the test compounds. The importance of this selectivity is Described in Kotani, et al., J. Med. Chem. 40: 684, 1997.

[2] = target: T1, human aldehyde reductase (hALR1) (Homo sapiens, UniProt P14550); test: Inhibition of human aldehyde reductase (hALR1), methods of Ishii et al.; type: biochemical
T1 sequence (P14550 1-325): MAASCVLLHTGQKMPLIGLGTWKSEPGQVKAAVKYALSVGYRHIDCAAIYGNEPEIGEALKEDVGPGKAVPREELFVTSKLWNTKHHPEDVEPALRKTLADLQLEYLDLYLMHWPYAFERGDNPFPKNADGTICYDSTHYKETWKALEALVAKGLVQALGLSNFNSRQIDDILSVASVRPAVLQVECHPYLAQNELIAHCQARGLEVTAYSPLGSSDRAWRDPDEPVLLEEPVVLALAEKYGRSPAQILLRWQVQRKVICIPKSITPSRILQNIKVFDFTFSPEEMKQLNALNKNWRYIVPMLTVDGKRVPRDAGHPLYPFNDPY
Protocol: In a second assay, a number of the same compounds were tested for their ability to inhibit aldehyde reductase (hALR1), a structurally related enzyme.
as §1, with “compounds.” for “compounds. The importance of this selectivity is Described in Kotani, et al., J. Med. Chem. 40: 684, 1997.”

Molecule	IC50 [1] [µM]	further results
3-[6-Fluorbenzothiazole-2-yl]methyl-indole-N-acetic Acid [Example 24]		HALR1/hALR2 [1]: 4
Cc1c(Cc2nc3c(F)c(F)cc(F)c3s2)c2ccccc2n1CC(=O)O [Example 1, 2-methyl-3-(4,5,7-trifluorobenzothiazol-2-yl)methyl-indole-N-acetic Acid]	0.008	
O=C(O)Cn1cc(Cc2nc3c(F)c(F)cc(F)c3s2)c2cc(Cl)ccc21 [Example 2, 5-chloro-3-(4,5,7-Trifluorobenzothiazol-2-yl)methyl-indole-N-acetic Acid]	0.01	
Cc1ccc2c(c1)c(Cc1nc3c(F)c(F)cc(F)c3s1)cn2CC(=O)O [Example 4, 5-methyl-3-(4,5,7-trifluorobenzothiazol-2-yl)methyl-indole-N-acetic Acid]	0.008	
Cc1cccc2c(Cc3nc4c(F)c(F)cc(F)c4s3)cn(CC(=O)O)c12 [Example 5, 7-methyl-3-(4,5,7-trifluorobenzothiazol-2-yl)methyl-indole-N-acetic Acid]	0.006	
O=C(O)Cn1cc(Cc2nc3c(F)c(F)cc(F)c3s2)c2ccc(Cl)cc21 [Example 6, 6-chloro-3-(4,5,7-trifluorobenzothiazol-2-yl)methyl-indole-N-acetic Acid]	0.008	
O=C(O)Cn1cc(Cc2nc3c(F)c(F)cc(F)c3s2)c2cc(OCc3ccccc3)ccc21 [Example 7, 5-benzyloxy-3-(4,5,7-trifluorobenzothiazol-2-yl)methyl-indole-N-acetic Acid]	0.012	
O=C(O)Cn1cc(Cc2nc3c(F)c(F)cc(F)c3s2)c2ccc(F)cc21 [Example 8, 6-fluoro-3-(4,5,7-trifluorobenzothiazol-2-yl)methyl-indole-N-acetic Acid]	0.007	
O=C(O)Cn1cc(Cc2nc3c(F)c(F)cc(F)c3s2)c2cc(F)ccc21 [Example 9, 5-fluoro-3-(4,5,7-trifluorobenzothiazol-2-yl)methyl-indole-N-acetic Acid]	0.011	
Cc1ccc2c(Cc3nc4c(F)c(F)cc(F)c4s3)cn(CC(=O)O)c2c1 [Example 10, 6-methyl-3-(4,5,7-trifluorobenzothiazol-2-yl)methyl-indole-N-acetic Acid]	0.005	
O=C(O)Cn1cc(Cc2nc3cc(C(F)(F)F)ccc3s2)c2ccccc21 [Example 11, 3-(5-trifluoromethylbenzothiazol-2-yl)methyl-indole-N-acetic Acid]	0.099	
Cc1ccc2c(c1)c(Cc1nc3cc(C(F)(F)F)ccc3s1)cn2CC(=O)O [Example 12, 5-Methyl-3-(5-Trifluoromethylbenzothiazol-2-yl)methyl-indole-N-acetic Acid]	0.102	HALR1/hALR2 [1]: 98; IC50 [2]: 10 µM
O=C(O)Cn1cc(Cc2cccc([N+](=O)[O-])c2)c2ccccc21 [Example 13, 3-(3-nitrophenyl)methyl-indole-N-acetic Acid]	0.073	HALR1/hALR2 [1]: 178; IC50 ([2]; read-out: HALR1 (IC50)): 13 µM
O=C(O)Cn1c(-c2ccccc2)c(Cc2nc3c(F)c(F)cc(F)c3s2)c2ccccc21 [Example 14, 2-phenyl-3-(4,5,7-trifluorobenzothiazol-2-yl)methyl-indole-N-acetic Acid]	0.101	
O=C(O)Cn1cc(Cc2nc3c(F)c(F)cc(F)c3s2)c2cc(-c3ccccc3)ccc21 [Example 15, 5-phenyl-3-(4,5,7-trifluorobenzothiazol-2-yl)methyl-indole-N-acetic acid]	0.053	
O=C(O)Cn1cc(Cc2nc3c(F)c(F)cc(F)c3s2)c2ccc(-c3ccccc3)cc21 [Example 16, 6-phenyl-3-(4,5,7-trifluorobenzothiazol-2-yl)methyl-indole-N-acetic Acid]	0.025	HALR1/hALR2 [1]: 248; IC50 [2]: 6.2 µM

Molecule	IC50 [1] [µM]	further results
O=C(O)Cn1cc(Cc2nc3c(F)c(F)cc(F)c3s2)c2cc(N3CCOCC3)ccc21 [Example 17, 5-morpholino-3-(4,5.7-trifluorobenzothiazol-2-yl)methyl-indole-N-acetic Acid]	0.008	
O=C(O)Cn1cc(Cc2nc3c(F)c(F)cc(F)c3s2)c2ccc(N3CCOCC3)cc21 [Example 18, 6-morpholino-3-(4,5,7-trifluorobenzothiazol-2-yl) methyl-indole-N-acetic Acid]		HALR1/hALR2 [1]: >6,700; IC50 ([1]; read-out: hALR2 (IC50)): 0.015 µM; IC50 ([2]; read-out: HALR1 (IC50)): > 100 µM
O=C(O)Cn1cc(Cc2nc3c(F)c(F)cc(F)c3s2)c2cc(Oc3ccccc3)ccc21 [Example 19, 5-phenoxy-3-(4,5,7-trifluorobenzothiazol-2-yl)methyl-indole-N-acetic Acid]	0.03	
O=C(O)Cn1cc(Cc2nc3c(F)c(F)cc(F)c3s2)c2cccc(F)c21 [Example 20, 7-fluoro-3-(4,5,7-trifluorobenzothiazol-2-yl)methyl-indole-N-acetic Acid]	0.007	
O=C(O)Cn1cc(Cc2nc3c(F)c(F)cc(F)c3s2)c2cccc(Br)c21 [Example 21, 7-bromo-3-(4,5,7-trifluorobenzothiazol-2-yl)methyl-indole-N-acetic Acid]	0.014	
O=C(O)Cn1cc(Cc2nc3c(F)c(F)cc(F)c3s2)c2cccc(Cl)c21 [Example 22, 7-chloro-3-(4,5,7-trifluorobenzothiazol-2-yl)methyl-indole-N-acetic Acid]	0.0091	
O=C(O)Cn1cc(Cc2nc3cc(F)ccc3s2)c2ccccc21 [Example 23, 3-[5-Fluorbenzothiazole-2-yl]methyl-indole-N-acetic Acid]	0.009	HALR1/hALR2 [1]: 720; IC50 [2]: 6.5 µM
CC(C(=O)O)n1cc(Cc2nc3c(F)c(F)cc(F)c3s2)c2ccccc21 (stereo not drawn) [Example 25, 3-(4.5,7-trifluorobenzothiazol-2-yl)methyl-indole-N-2-propionic Acid]	0.16	
O=C(O)CCn1cc(Cc2nc3c(F)c(F)cc(F)c3s2)c2ccccc21 [Example 26, 3-(4-5.7-trifluorobenzothiazol-2-yl)methyl-indole-N-3-propionic Acid]	0.017	
O=C(O)Cn1cc(Cc2nc3cc(C(F)(F)F)ccc3s2)c2ccc(Br)cc21 [Example 27, 6-Bromo-3-(5-trifluoromethylbenzothiazol-2-yl)methyl-indole-N-acetic acid]	0.052	HALR1/hALR2 [1]: <96; IC50 [2]: < 5 µM
COc1ccc2c(Cc3nc4c(F)c(F)cc(F)c4s3)cn(CC(=O)O)c2c1 [Example 28, 6-Methoxy-3-(4,5,7-trifluorobenzothiazol-2-yl)methyl-indole-N-acetic acid]	0.005	
O=C(O)Cn1cc(Cc2nc3c(F)c(F)cc(F)c3s2)c2c(Cl)cccc21 [Example 29, 4-Chloro-3-(4,5,7-trifluorobenzothiazol-2yl) methyl-indole-N-acetic Acid]	0.011	
COc1ccc2c(c1)c(Cc1nc3c(F)c(F)cc(F)c3s1)cn2CC(=O)O [Example 30, 5-Methoxy-3-(4,5,7-trifluorobenzothiazol-2-yl) methyl-indole-N-acetic Acid]	0.0077	
O=C(O)Cn1cc(Cc2nc3c(F)c(F)cc(F)c3s2)c2cc(Br)ccc21 [Example 31, 5-Bromo-3-(4,5.7-trifluorobenzothiazol-2-yl) methyl-indole-N-acetic acid]	0.013	HALR1/hALR2 [1]: 746; IC50 [2]: 9.7 µM
O=C(O)Cn1cc(Cc2nc3ccc(Cl)cc3s2)c2ccccc21 [Example 32, 3-(6-chlorobenzothiazol-2-yl) methyl-indole-N-acetic Acid]	0.66	
